# Laboratory results reported in patent publication US20090306012A1, “THERAPEUTIC PROTOCOLS” (priority 2001, published 2009).
# Columns and labels:
# Glutathione peroxidase = conditions: chronic exposure, vs control groups
# Protocol: One week after the last injection, the rats were killed by decapitation and internal organs were fixed in 10% v/v formalin in phosphate buffered saline. Prior to tissue fixation, portions of the kidney, liver, and skeletal muscle and heart were quickly removed and placed in tubes on ice. The tissue was either used immediately or stored at −80° C. until assayed. Each sample was minced into small pieces, washed vigorously in two changes of ice cold 0.25 M sucrose containing 1 mM EDTA, then washed in 50 mM potassium phosphate buffer pH 7.8 containing 0.1 mM EDTA prior to recording the tissues ‘wet’ weight. The tissue was then resuspended in 2 mL of ice-phosphate-EDTA buffer and homogenized on ice for three 5-second bursts over 5 minutes using an Ultraturrax homogenizer. The fine suspension was made up to a final volume of 4 mL with the phosphate-EDTA buffer and used for the enzyme and GSH assays described below.
# From the 4 mL tissue homogenate, 1 mL was transferred to a clean 1.5 mL Eppendorf and stored on ice. […]
# SOD activity was determined measuring the Cytochrome c by the method according to McCord & Fridovich (J. Biol. Chem. 244(22): 6056-6063, 1969). GP activity was assessed by an indirect coupled assay (Paglia & Valentine, J. Lab. Clin. Med. 70(1): 158-169, 1967). […]
# For control purposes, antioxidant loading from hepatic, renal and skeletal muscle extracts was also determined.
# cardiac myocytes [1] = experiment: In vivo cardiotoxicity (II): myocardial pathology by transmission electron microscopy (vacuolated myocytes); set-up: species or system Adult female spontaneously hypertensive rats; conditions: cumulative Dox 13 mg/kg, 12 weeks
# Excerpt: (§1) Immediately after animal sacrifice, a traverse section of the intraventricular septum was dissected from the heart and fixed in 2% glutaraldehyde, 2% paraformaldehyde and 4% glucose in phosphate buffer. Standard post-buffering, osmication and processing were followed. Specimens were examined with a Philip's electron microscope and the frequency and severity of cardiac damage in the myocardial cells were graded according to the method according to Billingham et al. (Can. Treat. Rep. 62: 865-872, 1978). In brief, blocks were selected that consisted predominantly of transected cardiac myocytes.
# (§2) Group 4 received no treatment.
# For analyses, tissue processing and assays of antioxidant enzymes and GSH, were carried out as described in Example 2. Analysis of cardiac damage by transmission electron microscopy was also carried out as described in Example 2.
# To minimize anatomical variation across treatment groups, samples of the lateral border of the left ventricle were processed for EM analysis.
# [2] = In vivo cytotoxicity (I): metabolic stress (daily body weight); set-up: species or system Male F1 mice (C57×CBA)
# Excerpt: All treatment groups were monitored for weight loss on a daily basis. At the end of the study the data were expressed as percentage of original body mass and graphed in this maimer.
# [3] = test system: reduced glutathione (GSH); experiment: In vivo cardiotoxicity (II): tissue reduced glutathione (GSH) level; set-up: species or system Adult female spontaneously hypertensive rats; conditions: chronic exposure, vs control values
# Protocol: For the GSH assay, 0.25 mL of 25% w/v metaphosphoric acid was added to the 1 mL of the original crude homogenate, mixed thoroughly and incubated on ice for 15 minutes. The protein precipitate was pelleted by centrifugation at 10,000 g for 10 minutes at 4° C. The clear supernatant was transferred to a clean tube and either stored at −70° C. for no longer than three days or GSH levels were directly determined. The level of GSH was determined using a fluorometric assay using 0-phthalaldehyde as described by Cohn & Lyle (Anal. Biochem. 14(3): 434-440, 1966).
# as §2
# cardiac myocytes [4] = experiment: In vivo cardiotoxicity (I): cardiac damage by electron microscopy; set-up: species or system Adult female Wistar rats; conditions: chronic exposure, rats
# Excerpt: (§3) Group 6 received no treatment.
# as §1
# neutrophils = experiment: Phase I clinical trial of doxorubicin + HA (HyDox) in advanced cancer: toxicity, neutrophil counts; assay type: in vivo, patients
# Excerpt: The eligibility criteria, for inclusion in this study, were as follows: Patients must have advanced or metastatic cancer, histologically or cytologically confirmed. Patients were not to have had previous chemotherapy or were to have had no more than one prior chemotherapy regime and were not to have had prior anthracyclines. Patients were to be aged between 18 and 75 years with ambulatory performance status and adequate bone marrow, liver and renal function.
# The treatment plan provided that, in the first chemotherapy cycle, patients be randomized to receive Dox alone or Dox plus HA. The converse applied in the second cycle. In the subsequent four cycles, patients received Dox plus HA. This allowed each patient to act as his/her own control in the toxicity analysis in the first two cycles, reducing the possibility of inter-patient variability affecting result interpretation.
# Injectable sodium chloride was obtained from Baxter Healthcare, Sydney, Australia, as supplied as a 500 ml infusion bag.
# Therefore, the initial dose level was 30 mg/m^2, the next 45 mg/m^2 and the next 60 mg/m^2.
# cardiac troponin T = experiment: In vivo cardiotoxicity (I): serum levels of cardiac troponin-T (cTnT); set-up: species or system Adult female Wistar rats; conditions: weekly iv […] Dox, rats
# Protocol: as §3
# Prior to the commencement of the study, blood (500 μL) was collected from each rat via a tail vein bleed procedure. Blood was collected in 1.5 mL Capiject tube and allowed to clot for a minimum of 30 minutes. […] After pre-bleeds, each experimental animal was injected with respective drug combination or control treatment and 24 hours after administration the rats were tail-bled and processed as described above. Thereafter, animals were injected with drug combinations at weekly intervals for 12 weeks, and blood was collected 24 hours after treatment.
# [5] = In vivo cytotoxicity (I): general toxicity (survival); conditions: 24 mg/kg Dox, single iv bolus, 14 days
# Protocol: Male F1 mice (C57×CBA; 11-13 weeks old), used for in vivo studies, were obtained from The Animal Central Division (Monash University, Victoria, Australia). The mice were distributed at random into each treatment group (6 per treatment group) and allowed to acclimatize for 2-3 weeks before commencing the study. […] Before a treatment group was started, blood (200 μL) from each experimental animal was collected by retroorbital sinus bleed and immediately transferred to tube containing EDTA, gently flick mixed and stored on ice until analysis. This was taken as day 0, after which the mice were given a single bolus intravenous injection via tail vein with corresponding control, drug, or HA/drug combinations. The mice were then sequentially bled on days 1, 4, 7, 10 and 14 by the aforementioned method. All blood samples were analyzed for white blood cell composition in an Adiva 120 Differential Coulter Counter (Bayer Diagnostics, USA). Throughout the duration of the study, mouse mass, food intake and general activity levels were recorded on a daily basis. On day 14, mice were sacrificed by cervical dislocation and the heart, lungs, liver, spleen, kidneys, stomach, intestines and testicles removed and immediately fixed in 10% v/v formalin in phosphate buffered saline.
# [6] = test system: peripheral blood neutrophils; experiment: In vivo cytotoxicity (II): daily blood neutrophil and differential counts; set-up: species or system Male F1 mice (C57×CBA)
# Protocol: For each treatment dosage a total of 6 groups (n=8 mice per group) were used. Data from each treatment group were established by staggering results of groups of 6 (counted individually), sampling each group every 4 days so that a daily assessment could be established. Each group was treated as described above, prior to the drug administration. -Throughout this study, blood was collected and analyzed for neutrophil content as outlined in previous examples.
# Again, to normalize the data for comparison between treatments, neutropenia was expressed as a percentage of neutrophils on day 0 (before drug administration).
structure (smiles),measurement,setting,value
"COc1cccc2c1C(=O)c1c(O)c3c(c(O)c1C2=O)C[C@@](O)(C(=O)CO)C[C@@H]3O[C@H]1C[C@H](N)[C@H](O)[C@H](C)O1 [Dox, doxorubicin]",Cardiac glutathione peroxidase levels,Glutathione peroxidase,equally increased
same,Myocyte vacuolation compared with the HyDox group,cardiac myocytes [1],almost two-three-fold greater
same,"Maximum weight loss, % of original body mass",[2]; 9 mg/kg Dox,~−10%
same,Original body mass lost,"[2]; 12 mg/kg Dox, by day 11",~13%
same,Original weight lost,"[2]; 24 mg/kg dosage group, by day 7",~25%
same,Level of hepatic GSH,[3],remained unchanged
same,Appearance of myocytes in the heart (electron micrographs),cardiac myocytes [4],vacuolated myocytes
same,Neutrophils as % of Day 1,"neutrophils; Patient 1, Cycle 2, 30 mg/m2, day 1",100%
same,Neutrophils as % of Day 1,"neutrophils; Patient 1, Cycle 2, 30 mg/m2, day 6",100%
same,Neutrophils as % of Day 1,"neutrophils; Patient 1, Cycle 2, 30 mg/m2, day 8",109%
same,Neutrophils as % of Day 1,"neutrophils; Patient 1, Cycle 2, 30 mg/m2, day 10",109%
same,Neutrophils as % of Day 1,"neutrophils; Patient 1, Cycle 2, 30 mg/m2, day 13",83%
same,Neutrophils as % of Day 1,"neutrophils; Patient 1, Cycle 2, 30 mg/m2, day 15",57%
same,Neutrophils as % of Day 1,"neutrophils; Patient 1, Cycle 2, 30 mg/m2, day 20",57%
same,Neutrophils as % of Day 1,"neutrophils; Patient 1, Cycle 2, 30 mg/m2, day 21",74%
same,Neutrophils as % of Day 1,"neutrophils; Patient 1, Cycle 3, 30 mg/m2, day 1",100%
same,Neutrophils as % of Day 1,"neutrophils; Patient 2, Cycle 1, 30 mg/m2, day 1",100%
same,Neutrophils as % of Day 1,"neutrophils; Patient 2, Cycle 1, 30 mg/m2, day 4",120%
same,Neutrophils as % of Day 1,"neutrophils; Patient 2, Cycle 1, 30 mg/m2, day 8",132%
same,Neutrophils as % of Day 1,"neutrophils; Patient 2, Cycle 1, 30 mg/m2, day 10",78%
same,Neutrophils as % of Day 1,"neutrophils; Patient 2, Cycle 1, 30 mg/m2, day 15",54%
same,Neutrophils as % of Day 1,"neutrophils; Patient 2, Cycle 1, 30 mg/m2, day 17",40%
same,Neutrophils as % of Day 1,"neutrophils; Patient 2, Cycle 1, 30 mg/m2, day 21",86%
same,Neutrophils as % of Day 1,"neutrophils; Patient 2, Cycle 3, 30 mg/m2, day 1",100%
same,Neutrophils as % of Day 1,"neutrophils; Patient 5, Cycle 1, 30 mg/m2, day 1",100%
same,Neutrophils as % of Day 1,"neutrophils; Patient 5, Cycle 1, 30 mg/m2, day 4",78%
same,Neutrophils as % of Day 1,"neutrophils; Patient 5, Cycle 1, 30 mg/m2, day 7",70%
same,Neutrophils as % of Day 1,"neutrophils; Patient 5, Cycle 1, 30 mg/m2, day 9",73%
same,Neutrophils as % of Day 1,"neutrophils; Patient 5, Cycle 1, 30 mg/m2, day 12",49%
same,Neutrophils as % of Day 1,"neutrophils; Patient 5, Cycle 1, 30 mg/m2, day 14",38%
same,Neutrophils as % of Day 1,"neutrophils; Patient 5, Cycle 1, 30 mg/m2, day 16",32%
same,Neutrophils as % of Day 1,"neutrophils; Patient 5, Cycle 1, 30 mg/m2, day 19",38%
same,Neutrophils as % of Day 1,"neutrophils; Patient 5, Cycle 1, 30 mg/m2, day 21",59%
same,Neutrophils as % of Day 1,"neutrophils; Patient 5, Cycle 3, 30 mg/m2, day 1",100%
same,Neutrophils as % of Day 1,"neutrophils; Patient 7, Cycle 1, 45 mg/m2, day 1",100%
same,Neutrophils as % of Day 1,"neutrophils; Patient 7, Cycle 1, 45 mg/m2, day 4",46%
same,Neutrophils as % of Day 1,"neutrophils; Patient 7, Cycle 1, 45 mg/m2, day 8",56%
same,Neutrophils as % of Day 1,"neutrophils; Patient 7, Cycle 1, 45 mg/m2, day 10",41%
same,Neutrophils as % of Day 1,"neutrophils; Patient 7, Cycle 1, 45 mg/m2, day 12",35%
same,Neutrophils as % of Day 1,"neutrophils; Patient 7, Cycle 1, 45 mg/m2, day 15",19%
same,Neutrophils as % of Day 1,"neutrophils; Patient 7, Cycle 1, 45 mg/m2, day 17",14%
same,Neutrophils as % of Day 1,"neutrophils; Patient 7, Cycle 1, 45 mg/m2, day 19",21%
same,Neutrophils as % of Day 1,"neutrophils; Patient 7, Cycle 3, 45 mg/m2, day 1",100%
same,Neutrophils as % of Day 1,"neutrophils; Patient 8, Cycle 2, 45 mg/m2, day 1",100%
same,Neutrophils as % of Day 1,"neutrophils; Patient 8, Cycle 2, 45 mg/m2, day 4",84%
same,Neutrophils as % of Day 1,"neutrophils; Patient 8, Cycle 2, 45 mg/m2, day 8",85%
same,Neutrophils as % of Day 1,"neutrophils; Patient 8, Cycle 2, 45 mg/m2, day 10",39%
same,Neutrophils as % of Day 1,"neutrophils; Patient 8, Cycle 2, 45 mg/m2, day 12",81%
same,Neutrophils as % of Day 1,"neutrophils; Patient 8, Cycle 2, 45 mg/m2, day 15",62%
same,Neutrophils as % of Day 1,"neutrophils; Patient 10, Cycle 1, 60 mg/m2, day 1",100%
same,Neutrophils as % of Day 1,"neutrophils; Patient 10, Cycle 1, 60 mg/m2, day 4",93%
same,Neutrophils as % of Day 1,"neutrophils; Patient 10, Cycle 1, 60 mg/m2, day 6",63%
same,Neutrophils as % of Day 1,"neutrophils; Patient 10, Cycle 1, 60 mg/m2, day 8",33%
same,Neutrophils as % of Day 1,"neutrophils; Patient 10, Cycle 1, 60 mg/m2, day 10",4%
same,Neutrophils as % of Day 1,"neutrophils; Patient 10, Cycle 1, 60 mg/m2, day 13",3%
same,Neutrophils as % of Day 1,"neutrophils; Patient 10, Cycle 1, 60 mg/m2, day 17",20%
same,Neutrophils as % of Day 1,"neutrophils; Patient 10, Cycle 1, 60 mg/m2, day 20",47%
same,Neutrophils as % of Day 1,"neutrophils; Patient 12, Cycle 1, 60 mg/m2, day 1",100%
same,Neutrophils as % of Day 1,"neutrophils; Patient 12, Cycle 1, 60 mg/m2, day 4",124%
same,Neutrophils as % of Day 1,"neutrophils; Patient 12, Cycle 1, 60 mg/m2, day 7",95%
same,Cumulative dose of Dox at which cardiotoxicity (serum troponin T release) begins,cardiac troponin T,9 mg/kg
same,Mice that survived until the end of the study,[5],2 mice
same,Duration of nadir neutropenia,[6]; 12 mg/kg,2 days
same,Onset of nadir neutropenia,[6]; 12 mg/kg,4 days
same,Duration of nadir neutropenia before recovery,[6]; 16 mg/kg,> 48 h
